The series in a line: method code SF, from DOI: 10.1016/j.ejps.2012.10.019, PMID: 23131797.

Broadly, the logD is the decadic logarithm of the distribution of all forms, ionised or not, between an organic phase and buffer at a given pH. Low values mean a more hydrophilic compound, high ones a more lipophilic compound. In turn, `CCCS(=O)(=O)c1c(S(=O)(=O)CCC)c2cnccn2c1C(=O)c1ccc(C)cc1` gave a log distribution coefficient (logD) (pH 5.0) of 3.93.

As for `COC(=O)COc1cc2occ(-c3csc(C)n3)c(=O)c2cc1C`, the logD (pH 10.5) worked out at 3.9.

`Cc1cc(C)n2c(SCc3ccc(C(=O)c4ccccc4)cc3)nnc2n1`: for the setting “pH 10.5”, the logD came to 4.43.

Consider `NNc1c(F)c(F)nc(F)c1F`, for which the logD (pH 7.0) is 0.86.

For the setting “pH 5.0”, `O=C(CS(=O)(=O)Cc1ccccc1)Nc1ccc2c(c1)OCCO2` came in with a logD of 3.19.

For the setting “pH 5.0”, `CC(=O)Nc1cccc(C(=O)OCC(=O)c2c(N)n(C)c(=O)n(C)c2=O)c1` returned a logD of 3.57.

Values taken from the SangsterLogP compilation.
